Measurements from patent EP0033042A1, “Ophthalmic inserts for lowering intraocular pressure comprising carbonic anhydrase inhibitors” (Merck & Co., Inc., priority 1980, dated 1981).
Counter-ions that a name gives are not always drawn.

Legend:
[1] = system: NORMAL INTRAOCULAR PRESSURE IN UNANESTHETIZED RABBITS; assay: Topical administration, effect on normal intraocular pressure in unanesthetized rabbits; type: in vivo; conditions: 12.1 % by wt., 50μl in both eyes, in 0.5% hydroxyethylcellulose
[2] = system: INTRAOCULAR PRESSURE (IOP) IN RABBITS WITH ALPHA CHYMOTRYPSIN-INDUCED OCULAR HYPERTENSION; assay: Topical administration, effect on IOP in rabbits with alpha chymotrypsin-induced ocular hypertension (tonometry); type: in vivo; conditions: for Change in IOP (mm Hg) After Drug Administration: 12.1 % by wt., 50µl of 0.5% hydroxyethylcellulose; for Change in IOP (mm Hg) After Drug Administration / IOP (mm Hg) t=0 min.: mean ± standard deviation, Table III; for IOP (mm Hg) t=0 min.: immediately prior the drug administration (served as control), 9 eyes; for mean ΔP (mean of ΔP versus IOP at t0): 8 animals; for mean ΔP (mean of ΔP versus IOP at t0) / Intraocular pressure, mean ± stand deviation: 50μl in 0.5% hydroxyethyl cellulose; for Intraocular pressure, mean ± stand deviation: mean of 8 animals
[3] = 0 min after instillation (baseline), 14 eyes

SMILES | Mean Intraocular Pressure ± SD [1, 3] | Mean Intraocular Pressure ± SD ([1]; 30 min after instillation) | Mean Intraocular Pressure ± SD ([1]; 60 min after instillation) | Mean Intraocular Pressure ± SD ([1]; 120 min after instillation) | Mean Intraocular Pressure ± SD ([1]; 180 min after instillation) | Mean Intraocular Pressure ± SD ([1]; 240 min after instillation) | Mean Intraocular Pressure ± SD ([1]; 300 min after instillation) | Change in IOP (mm Hg) After Drug Administration ([2]; 30 min) | Change in IOP (mm Hg) After Drug Administration ([2]; 60 min) | Change in IOP (mm Hg) After Drug Administration ([2]; 120 min) | Change in IOP (mm Hg) After Drug Administration ([2]; 180 min) | Change in IOP (mm Hg) After Drug Administration ([2]; 240 min) | Change in IOP (mm Hg) After Drug Administration ([2]; 300 min) | IOP (mm Hg) t=0 min. [2] | also measured
CC(=O)Nc1nnc(S(N)(=O)=O)s1.[K].[K] [Acetazolamide Dipotassium salt, N-[5-(aminosulfonyl)-1,3,4-thiadiazol-2-yl]acetamide dipotassium salt] | 19±1.3 mm Hg | 19±1.3 mm Hg | 20±1.4 mm Hg | 19±1.9 mm Hg | 19±1.9 mm Hg | 20±1.8 mm Hg | 21±1.7 mm Hg | -1±3.1 mm Hg | -3±4.8 mm Hg | -5±4.6 mm Hg | -6±5.3 mm Hg | -6±5.3 mm Hg | -3±6.5 mm Hg | 37±6.4 mm Hg | 
CC(=O)N=c1sc(S(N)(=O)=O)nn1C.[Na] [Methazolamide Sodium salt, N-[5-(aminosulfonyl)-3-methyl-1,3,4-thiadiazol-2(3H)-ylidene]acetamide Sodium Salt] | 20±1.9 mm Hg | 20±3.0 mm Hg | 20±2.7 mm Hg | 19±3.3 mm Hg | 18±2.7 mm Hg | 20±3.4 mm Hg | 20±2.8 mm Hg | -3±4.6 mm Hg | -5±4.7 mm Hg | -6±6.0 mm Hg | -7±3.7 mm Hg | -5±5.4 mm Hg | -7±6.3 mm Hg | 39±7.7 mm Hg | mean ΔP (mean of ΔP versus IOP at t0) ([2]; 30 min.): -3.1±4.58 mm Hg; mean ΔP (mean of ΔP versus IOP at t0) ([2]; 60 min.): -5.1±4.68 mm Hg; mean ΔP (mean of ΔP versus IOP at t0) ([2]; 120 min.): -5.6±6.02 mm Hg; mean ΔP (mean of ΔP versus IOP at t0) ([2]; 180 min.): -6.8±3.70 mm Hg; mean ΔP (mean of ΔP versus IOP at t0) ([2]; 240 min.): -5.4±5.42 mm Hg; mean ΔP (mean of ΔP versus IOP at t0) ([2]; 300 min.): -6.9±6.27 mm Hg; Intraocular pressure, mean ± stand deviation ([2]; 0 min. (baseline)): 39.1±7.72 mm Hg; Intraocular pressure, mean ± stand deviation ([2]; 30 min.): 36.0±8.09 mm Hg; Intraocular pressure, mean ± stand deviation ([2]; 60 min.): 34.0±7.37 mm Hg; Intraocular pressure, mean ± stand deviation ([2]; 120 min.): 33.5±8.91 mm Hg; Intraocular pressure, mean ± stand deviation ([2]; 180 min.): 32.4±6.05 mm Hg; Intraocular pressure, mean ± stand deviation ([2]; 240 min.): 33.8±7.91 mm Hg; Intraocular pressure, mean ± stand deviation ([2]; 300 min.): 32.3±7.67 mm Hg
NS(=O)(=O)c1cc(Cl)c(Cl)c(S(N)(=O)=O)c1 [Dichlorphenamide Dipotassium salt, 4,5-Dichloro-m-benzenedisulfon-amide dipotassium salt . hemihydrate] | 20±1.8 mm Hg | 18±2.4 mm Hg | 18±2.4 mm Hg | 17±2.1 mm Hg | 15±2.4 mm Hg | 17±1.8 mm Hg | 20±2.6 mm Hg | -1±5.3 mm Hg | -4±3.8 mm Hg | -7±6.2 mm Hg | -6±6.8 mm Hg | -4±6.2 mm Hg | -3±6.7 mm Hg | 38±5.9 mm Hg | 
